Experiment: Henry solubility constant Hcp at 298.15 K (mol/(m3 Pa))
Details: reference: Bamford et al. (1999a)

Row | SMILES | Henry solubility constant Hcp
1 | Cc1cccc2ccccc12 [1-methylnaphthalene] | 0.021
2 | c1ccc2c(c1)ccc1ccccc12 [phenanthrene] | 0.23
3 | c1ccc2c(c1)-c1cccc3cccc-2c13 [benzo[jk]fluorene] | 0.51
4 | Cc1ccc2ccccc2c1 [2-methylnaphthalene] | 0.019
5 | c1ccc2c(c1)Cc1ccccc1-2 [2,3-benzindene] | 0.1
6 | c1ccc2c(c1)ccc1c3ccccc3ccc21 [chrysene] | 1.9
7 | c1ccc2cc3ccccc3cc2c1 [anthracene] | 0.18
8 | C1=Cc2cccc3cccc1c23 [acenaphthylene] | 0.079
9 | c1cc2c3c(cccc3c1)CC2 [acenaphthene] | 0.054
10 | Cc1cccc2c1ccc1ccccc12 [1-methylphenanthrene] | 0.2
11 | c1ccc2c(c1)Cc1c-2ccc2ccccc12 [benzo[a]fluorene] | 0.37
